{
  "source": "patent US7306789B2",
  "about": "“Method of stimulating hair growth using benzopyrans” (Warner-Lambert Company, LLC, priority 2002, dated 2007)",
  "key": {"In vivo clearance in rat": {"experiment": "In vivo clearance in rat", "settings": "low exposure to unchanged drug following oral or systemic administration", "description": "(§1) The compound is cleared by conjugation to produce the glucuronide and sulfate metabolites. The compound and its metabolites are rapidly taken up by the liver and excreted in the bile. Thus, following topical administration, any absorbed benzopyran is subject to high hepatic extraction, and thus low systemic exposure."}, "[1]": {"experiment": "In vivo clearance in human", "settings": "low exposure to unchanged drug following oral or systemic administration", "description": "as §1"}, "Female C3H/HeN mice": {"system": "Female C3H/HeN mice", "experiment": "Mouse hair growth model (topical administration)", "type": "in vivo", "settings": "for Day on which 50% incidence of hair growth occurred: topical", "protocol": "The effect of the benzopyran compound (3S,4R)-3,4-dihydro-4-(2,3-dihydro-2-methyl-3-oxopyridazin-6-yl)oxy-3-hydroxy-6-(3-hydroxyphenyl)sulphonyl-2,2,3-trimethyl-2H-benzo[b]pyran (Compound 1) on hair growth was evaluated by topical administration of the compound to mice. Compound 1 may be made according to the methods described in U.S. Pat. Nos. 5,912,244 and 6,071,938.\nFemale C3H/HeN mice, 42-46 days old (Charles River Laboratories, Raleigh, N.C.) were used for the study. The hair follicles of mice at this age are in the second telogen phase, which usually lasts from 6 to 9 weeks, providing a wide enough window to test compounds for their ability to induce earlier onset of anagen. Only mice with pink skin, a visual indication of the telogen phase, were selected for inclusion in the study.\nTest compounds, including Compound 1, the potassium channel opener minoxidil (marketed as Rogaine® containing 2% minoxidil), and cyclosporin A, were dissolved in a vehicle consisting of propylene glycol (30%) and ethanol (70%). A test compound dissolved in vehicle, or a vehicle control (30/70 propylene glycol/ethanol, unless otherwise specified) was applied topically to the clipped dorsal region of the mice in each test group (7-10 mice) in a volume of 20 μl/cm^2. Treatments were applied once or twice daily, 5 days/week.\nThe treatment area was observed and graded for signs of hair growth and local skin irritation. The hair growth response was quantified by recording, for each animal, the day on which signs of hair growth first appeared over the treated area. The first sign of anagen was the darkening of skin color as melanocytes in the follicles started to synthesize melanin in preparation for the production of pigmented hairs. The response time was measured as the number of days following initiation of treatment when hair growth was present in 50% of the mice in a given group."}, "In vivo clearance in dog": {"experiment": "In vivo clearance in dog", "settings": "low exposure to unchanged drug following oral or systemic administration", "description": "as §1"}, "[2]": {"experiment": "In vitro metabolism experiments (conjugation)", "type": "in vitro ADME", "description": "as §1"}},
  "data": [
    {"smiles": "Cn1nc(O[C@@H]2c3cc(S(=O)(=O)c4cccc(O)c4)ccc3OC(C)(C)[C@@]2(C)O)ccc1=O", "note": "[Compound 1, (3S,4R)-3,4-dihydro-4-(2,3-dihydro-2-methyl-3-oxopyridazin-6-yl)oxy-3-hydroxy-6-(3-hydroxyphenyl)sulphonyl-2,2,3-trimethyl-2H-benzo[b]pyran]", "values": [
      {"measurement": "Clearance", "setting": "In vivo clearance in rat", "result": "rapid clearance"},
      {"measurement": "Clearance", "setting": "[1]", "result": "rapid clearance"},
      {"measurement": "Quality of hair growth over the treated area", "setting": "Female C3H/HeN mice; all cases of hair growth stimulation", "result": "full and thick hair growth"},
      {"measurement": "Hair growth stimulation", "setting": "Female C3H/HeN mice; applied topically at 0.3% or 1% once or twice daily for five days or up to 4 weeks", "result": "stimulated hair growth"},
      {"measurement": "Efficacy relative to lower doses", "setting": "Female C3H/HeN mice; concentrations greater than 1%", "result": "less efficacious than lower doses"},
      {"measurement": "Behaviour of drug on the skin", "setting": "Female C3H/HeN mice; concentrations greater than 1%, vehicle propylene glycol/ethanol", "result": "precipitation of drug on the skin"},
      {"measurement": "Hair growth", "setting": "Female C3H/HeN mice; concentrations lower than 0.3% (0.1% to 0.03%)", "result": "not observed"},
      {"measurement": "Local irritation or other adverse effects", "setting": "Female C3H/HeN mice; mice treated for 2 weeks with 5%", "result": "No local irritation or other adverse effects"},
      {"measurement": "Day on which 50% incidence of hair growth occurred", "setting": "Female C3H/HeN mice; dose 0.03%, 1 dose/day, duration 1 week, study 5 (vehicle >35)", "result": ">35", "unit": "days"},
      {"measurement": "Day on which 50% incidence of hair growth occurred", "setting": "Female C3H/HeN mice; dose 0.03%, 1 dose/day, duration 1 week, study 6 (vehicle >35)", "result": ">35", "unit": "days"},
      {"measurement": "Day on which 50% incidence of hair growth occurred", "setting": "Female C3H/HeN mice; dose 0.03%, 1 dose/day, duration 1 week, study 7 (vehicle >35)", "result": ">35", "unit": "days"},
      {"measurement": "Day on which 50% incidence of hair growth occurred", "setting": "Female C3H/HeN mice; dose 0.03%, 1 dose/day, duration 1 week, study 9 (vehicle >35)", "result": ">35", "unit": "days"},
      {"measurement": "Day on which 50% incidence of hair growth occurred", "setting": "Female C3H/HeN mice; dose 0.1%, 1 dose/day, duration 1 week, study 5 (vehicle >35)", "result": ">35", "unit": "days"},
      {"measurement": "Day on which 50% incidence of hair growth occurred", "setting": "Female C3H/HeN mice; dose 0.1%, 1 dose/day, duration 1 week, study 6 (vehicle >35)", "result": ">35", "unit": "days"},
      {"measurement": "Day on which 50% incidence of hair growth occurred", "setting": "Female C3H/HeN mice; dose 0.3%, 1 dose/day, duration 1 week, study 4 (vehicle 25)", "result": 11, "unit": "days"},
      {"measurement": "Day on which 50% incidence of hair growth occurred", "setting": "Female C3H/HeN mice; dose 0.3%, 1 dose/day, duration 1 week, study 5 (vehicle >35)", "result": ">35", "unit": "days"},
      {"measurement": "Day on which 50% incidence of hair growth occurred", "setting": "Female C3H/HeN mice; dose 0.3%, 1 dose/day, duration 1 week, study 6 (vehicle >35)", "result": ">35", "unit": "days"},
      {"measurement": "Day on which 50% incidence of hair growth occurred", "setting": "Female C3H/HeN mice; dose 0.3%, 1 dose/day, duration 1 week, study 7 (vehicle >35)", "result": 14, "unit": "days"},
      {"measurement": "Day on which 50% incidence of hair growth occurred", "setting": "Female C3H/HeN mice; dose 0.3%, 1 dose/day, duration 1 week, study 9 (vehicle >35)", "result": 16, "unit": "days"},
      {"measurement": "Day on which 50% incidence of hair growth occurred", "setting": "Female C3H/HeN mice; dose 0.3%, 1 dose/day, duration 1 week, study 10 (vehicle >35)", "result": 21, "unit": "days"},
      {"measurement": "Day on which 50% incidence of hair growth occurred", "setting": "Female C3H/HeN mice; dose 0.3%, 1 dose/day, duration 1 week, study 11 (vehicle 56)", "result": 25, "unit": "days"},
      {"measurement": "Day on which 50% incidence of hair growth occurred", "setting": "Female C3H/HeN mice; dose 0.3%, 1 dose/day, duration 1 week, study 12 (vehicle >35)", "result": ">35", "unit": "days"},
      {"measurement": "Day on which 50% incidence of hair growth occurred", "setting": "Female C3H/HeN mice; dose 0.3%, 1 dose/day, duration 1 week, study 13 (vehicle 56)", "result": 28, "unit": "days"},
      {"measurement": "Day on which 50% incidence of hair growth occurred", "setting": "Female C3H/HeN mice; dose 0.3%, 1 dose/day, duration 4 weeks, study 10 (vehicle >35)", "result": 23, "unit": "days"},
      {"measurement": "Day on which 50% incidence of hair growth occurred", "setting": "Female C3H/HeN mice; dose 0.3%, 1 dose/day, duration 4 weeks, study 12 (vehicle >35)", "result": 16, "unit": "days"},
      {"measurement": "Day on which 50% incidence of hair growth occurred", "setting": "Female C3H/HeN mice; dose 0.3%, 1 dose/day, duration 4 weeks, study 13 (vehicle 56)", "result": 35, "unit": "days"},
      {"measurement": "Day on which 50% incidence of hair growth occurred", "setting": "Female C3H/HeN mice; dose 1%, 1 dose/day, duration 1 week, study 3 (vehicle 21)", "result": 14, "unit": "days"},
      {"measurement": "Day on which 50% incidence of hair growth occurred", "setting": "Female C3H/HeN mice; dose 1%, 1 dose/day, duration 1 week, study 4 (vehicle 25)", "result": 11, "unit": "days"},
      {"measurement": "Day on which 50% incidence of hair growth occurred", "setting": "Female C3H/HeN mice; dose 1%, 1 dose/day, duration 1 week, study 5 (vehicle >35)", "result": ">35", "unit": "days"},
      {"measurement": "Day on which 50% incidence of hair growth occurred", "setting": "Female C3H/HeN mice; dose 1%, 1 dose/day, duration 1 week, study 8 (vehicle >35)", "result": 21, "unit": "days"},
      {"measurement": "Day on which 50% incidence of hair growth occurred", "setting": "Female C3H/HeN mice; dose 1%, 1 dose/day, duration 1 week, study 9 (vehicle >35)", "result": 28, "unit": "days"},
      {"measurement": "Day on which 50% incidence of hair growth occurred", "setting": "Female C3H/HeN mice; dose 1%, 1 dose/day, duration 1 week, study 10 (vehicle >35)", "result": ">35", "unit": "days"},
      {"measurement": "Day on which 50% incidence of hair growth occurred", "setting": "Female C3H/HeN mice; dose 1%, 1 dose/day, duration 1 week, study 12 (vehicle >35)", "result": 16, "unit": "days"},
      {"measurement": "Day on which 50% incidence of hair growth occurred", "setting": "Female C3H/HeN mice; dose 1%, 1 dose/day, duration 4 weeks, study 10 (vehicle >35)", "result": ">35", "unit": "days"},
      {"measurement": "Day on which 50% incidence of hair growth occurred", "setting": "Female C3H/HeN mice; dose 1%, 1 dose/day, duration 4 weeks, study 12 (vehicle >35)", "result": 18, "unit": "days"},
      {"measurement": "Day on which 50% incidence of hair growth occurred", "setting": "Female C3H/HeN mice; dose 1%, 2 doses/day, duration 2 weeks, study 1 (vehicle >35)", "result": 25, "unit": "days"},
      {"measurement": "Day on which 50% incidence of hair growth occurred", "setting": "Female C3H/HeN mice; dose 1%, 2 doses/day, duration 2 weeks, study 2 (vehicle >35)", "result": 28, "unit": "days"},
      {"measurement": "Clearance", "setting": "In vivo clearance in dog", "result": "rapid clearance"},
      {"measurement": "Rate of conjugation", "setting": "[2]", "result": "high"}
    ]},
    {"smiles": "Nc1cc(N2CCCCC2)nc(N)[n+]1[O-]", "note": "[Minoxidil, minoxidil, reference compound]", "values": [
      {"measurement": "Day on which 50% incidence of hair growth occurred", "setting": "Female C3H/HeN mice; dose 2.5%, 1 dose/day, duration 1 week, study 13 (vehicle 56)", "result": 53, "unit": "days"},
      {"measurement": "Day on which 50% incidence of hair growth occurred", "setting": "Female C3H/HeN mice; dose 2.5%, 1 dose/day, duration 4 weeks, study 13 (vehicle 58)", "result": 39, "unit": "days"},
      {"measurement": "Day on which 50% incidence of hair growth occurred", "setting": "Female C3H/HeN mice; dose 5%, 1 dose/day, duration 1 week, study 13 (vehicle 56)", "result": 56, "unit": "days"},
      {"measurement": "Day on which 50% incidence of hair growth occurred", "setting": "Female C3H/HeN mice; dose 5%, 1 dose/day, duration 4 weeks, study 13 (vehicle 58)", "result": 37, "unit": "days"}
    ]}
  ]
}
